Legend:
[1] = Metabolite profiles of DCDQ in human plasma and urine by LC/MS (Table 33); type: in vivo, healthy human subjects; conditions: human plasma and urine, healthy subjects receiving DCDQ
Description: Drug administration and specimen collection were performed in a randomized, double-blinded, placebo-controlled, ascending single dose study of the safety, tolerability, pharmacokinetics, and pharmacodynamics of DCDQ administered orally to healthy subjects and subjects with schizophrenia and schizoaffective disorder. The specimens were stored at approximately −70° C. until analysis for metabolite profiles and for ratios of carbamoyl glucuronide (M6) to DCDQ.
Two subjects with medium and high exposure to DCDQ in the 25 mg multiple ascending dose study were also analyzed by LC/MS for metabolite profiles. The 8 hr plasma samples collected on day 1 and day 14 from subjects 9 and 41 were processed and analyzed as described below. No internal standard was added to the samples analyzed for metabolite profiles.
LC/MS System 1 was used for analysis of plasma and urine samples for metabolite characterization. The HPLC equipment used with this LC/MS System consisted of an Agilent Model 1100 HPLC system (Agilent Technologies, Palo Alto, Calif.) including an autosampler, binary pump and diode array UV detector. The UV detector was set to monitor 210 to 350 nm. The HPLC mobile phase consisted of 10 mM ammonium acetate, pH 4.5 (A) and methanol (B), and was delivered at 0.2 mL/min. The linear mobile phase gradient (HPLC Gradient 1) is shown below. During LC/MS sample analysis, up to 6 min of the initial flow was diverted away from the mass spectrometer prior to evaluation of metabolites.
The mass spectrometer used for metabolite characterization with LC/MS System 1 was a Finnigan LCQ-Deca ion trap mass spectrometer (Thermo Electron, San Jose, Calif.). This mass spectrometer was equipped with an electrospray ionization (ESI) interface and operated in the positive ionization mode. Settings for the LCQ mass spectrometer are listed below.
LC/MS System 2 was used to provide additional MS/MS data for characterization of DCDQ metabolites in urine. The HPLC equipment used with LC/MS System 2 consisted of a Waters model 2695 HPLC system (Waters Corp., Milford, Mass.). It was equipped with a built-in autosampler and a model 996 diode array UV detector. The UV detector was set to monitor 210-400 nm. The HPLC column, mobile phases, flow rate, diversion of flow away from the mass spectrometer and gradient were as described above for LC/MS System 1. The column temperature was 25° C.
The mass spectrometer used for metabolite characterization with LC/MS System 2 was a Micromass Quattro Micro triple quadrupole mass spectrometer (Waters Corp.). This mass spectrometer was equipped with an electrospray interface and operated in the positive ionization mode. Settings for this mass spectrometer are listed below.

[2] = system: cryopreserved human hepatocytes; experiment: Incubation of [14C]DCDQ with cryopreserved human hepatocytes; type: in vitro ADME; conditions: 10 or 50 μM DCDQ, 4 hours
Description: Vials containing cryopreserved human hepatocytes were thawed in a 37° C. water bath with gentle shaking until the ice was almost melted. The vials were removed from the water bath and gentle shaking continued at room temperature for 30-60 seconds until completely thawed. The hepatocyte suspensions from each vial were immediately transferred to pre-cooled 50 mL beakers on ice. To each beaker, 12 mL of ice-cold hepatocyte suspension media was added dropwise over one minute, with occasional, gentle shaking by hand to prevent the cells from settling. The cell suspensions were transferred to a 15 mL tube and centrifuged at 100 g force for 3 min at 4° C. (Model T21 super centrifuge, Sorvall). The supernatant was discarded and the pellets were re-suspended in 4 mL of ice-cold hepatocyte culture media. The cell suspensions contained approximately 3.1×10^6 viable hepatocytes/mL. The average viability was 76.0% as determined using Trypan Blue exclusion and a hemacytometer.
The cell suspensions were distributed into 12-well plates at 1.0 mL per well. Incubations were performed using pooled hepatocytes from two donors. [^14C]DCDQ in water was added to the hepatocyte suspension at a final concentration of 10 or 50 μM. Incubations were carried out at 37° C. for 4 hours in an incubator supplied with 5% CO2. At the end of the incubation, the reaction was stopped by the addition of 200 μL cold methanol to each well. The content of each well was transferred to a 15 mL centrifuge tube and sonicated for 30 seconds. After vortex mixing with 6 mL methanol and then centrifugation, the supernatant was transferred to a clean tube and evaporated to about 0.5 mL in a TurboVap evaporator. The residue was analyzed by HPLC and LC/MS.
A Waters model 2690 HPLC system (Waters Corp., Milford, Mass.) with a built-in autosampler was used for analysis. […] A variable wavelength UV detector set to monitor 250 nm and Flo-One β Model A525 radioactivity flow detector (Perkin Elmer) with a 250 μL LQTR flow cell were used for data acquisition. […]

[3] = Metabolites of DCDQ generated by liver microsomes and hepatocytes, LC/MS characterization (Table 6); type: in vitro ADME; conditions: MM mouse, RM rat, DM dog, HM human liver microsomes; HH human hepatocytes
Text: An Agilent Model 1100 HPLC system (Agilent Technologies, Palo Alto, Calif.) including an autosampler and diode array UV detector was used for LC/MS analysis. The UV detector was set to monitor 200 to 400 nm. For selected LC/MS analysis, radiochromatograms were acquired using a β-Ram model 3 radioactivity flow detector (IN/US Systems Inc., Tampa, Fla.) equipped with a solid scintillant flow cell. Separations were accomplished on a Phenomenex Luna C18(2) column (2×150 mm, 5 μm) under the same conditions as described above.
The mass spectrometer used for metabolite characterization was a Micromass Q-TOF-2 quadrupole time-of-flight hybrid mass spectrometer ([…].). The mass spectrometer was equipped with an electrospray ionization (ESI) interface and operated in the positive ionization mode. Collision energy settings of 5 and 30 eV were used for full MS and MS/MS scans, respectively. Settings for the mass spectrometer are listed below.
Mass spectra were obtained by LC/MS and LC/MS/MS analysis for DCDQ and its metabolites.

## C1=NCCN2C[C@@H]3CCC[C@@H]3c3cccc1c32 [Metabolite P3, DCDQ imine]
[1]
  Matrix (in which DCDQ / metabolite was characterized by LC/MS): P, U
[2]
  metabolite detected in human hepatocyte incubations: observed
[3]
  Source: MM, RM, DM, HM, HH

Reference: patent publication US20060111305A1, “Metabolites of certain [1,4]diazepino[6,7,1-ij]quinoline derivatives and methods of preparation and use thereof” (Wyeth, priority 2004, published 2006)
